Reference: US20150105252A1, “SUBSTITUTED PYRAZOLES AS HERBICIDES” (E I DU PONT DE NEMOURS AND COMPANY, priority 2013, published 2015)

Legend:
Test in all cases: Test C postemergence
morningglory = format: in vivo, Ipomoea coccinea
Procedure, shortened: (§1)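 Postemergence values come from plants sprayed at the 1- to 4-leaf stage (2–18 cm) in peat moss–vermiculite medium; preemergence values from seeds treated in a loam–sand blend. Both evaluated visually against controls after 13–15 greenhouse days, scale 0–100.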

pigweed = format: in vivo, Amaranthus retroflexus
Procedure, shortened: as §1

oilseed rape = format: in vivo, Brassica napus
Procedure, shortened: as §1

johnsongrass = format: in vivo, Sorghum halepense
Procedure, shortened: as §1

ryegrass, Italian = format: in vivo, Lolium multiflorum
Procedure, shortened: as §1

nutsedge, yellow = format: in vivo, Cyperus esculentus
Procedure, shortened: as §1

foxtail, giant = format: in vivo, Setaria faberii
Procedure, shortened: as §1

oat, wild = format: in vivo, Avena fatua
Procedure, shortened: as §1

waterhemp = format: in vivo, Amaranthus rudis
Procedure, shortened: as §1

crabgrass, large = format: in vivo, Digitaria sanguinalis
Procedure, shortened: as §1

galium = format: in vivo, Galium aparine
Procedure, shortened: as §1

kochia = format: in vivo, Kochia scoparia
Procedure, shortened: as §1

velvetleaf = format: in vivo, Abutilon theophrasti
Procedure, shortened: as §1

corn = format: in vivo, Zea mays
Procedure, shortened: as §1

soybean = format: in vivo, Glycine max
Procedure, shortened: as §1

blackgrass = format: in vivo, Alopecurus myosuroides
Procedure, shortened: as §1

chickweed = format: in vivo, Stellaria media
Procedure, shortened: as §1

ragweed = format: in vivo, Ambrosia elation
Procedure, shortened: as §1

[1] = Postemergence, 31 g ai/ha, visually evaluated after 13 to 15 days
[2] = postemergence, 62 g ai/ha, scale 0 to 100
[3] = postemergence, 250 g ai/ha, scale 0 to 100 (0 no effect, 100 complete control)
[4] = postemergence, 125 g ai/ha, scale 0 to 100, 0 no effect, 100 complete control

## CCCNC(=O)c1cc(CC)n(Cc2ccnc(OC(F)F)c2)n1 [Compound 132]
morningglory; [1]
  Plant response rating (scale of 0 to 100 where 0 is no effect and 100 is complete control), Morningglory: 30
morningglory; [2]
  Morningglory plant response rating: 75
morningglory; [3]
  Plant response rating, Morningglory: 98
morningglory; [4]
  Plant response rating, Morningglory: 80
pigweed; [1]
  Plant response rating (scale of 0 to 100 where 0 is no effect and 100 is complete control), Pigweed: 10
pigweed; [2]
  Pigweed plant response rating: 30
pigweed; [3]
  Plant response rating, Pigweed: 60
pigweed; [4]
  Plant response rating, Pigweed: 35
Oilseed rape; [1]
  Plant response rating (scale of 0 to 100 where 0 is no effect and 100 is complete control), Oilseed Rape: 25
Oilseed rape; [2]
  Oilseed Rape plant response rating: 55
Oilseed rape; [3]
  Plant response rating, Oilseed Rape: 65
Oilseed rape; [4]
  Plant response rating, Oilseed Rape: 65
johnsongrass; [1]
  Plant response rating (scale of 0 to 100 where 0 is no effect and 100 is complete control), Johnsongrass: 5
johnsongrass; [2]
  Johnsongrass plant response rating: 5
johnsongrass; [3]
  Plant response rating, Johnsongrass: 75
johnsongrass; [4]
  Plant response rating, Johnsongrass: 25
ryegrass, Italian; [1]
  Plant response rating (scale of 0 to 100 where 0 is no effect and 100 is complete control), Ryegrass, Italian: 10
ryegrass, Italian; [2]
  Ryegrass, Italian plant response rating: 10
ryegrass, Italian; [3]
  Plant response rating, Ryegrass, Italian: 10
ryegrass, Italian; [4]
  Plant response rating, Ryegrass, Italian: 10
nutsedge, yellow; [1]
  Plant response rating (scale of 0 to 100 where 0 is no effect and 100 is complete control), Nutsedge, Yellow: 5
nutsedge, yellow; [2]
  Nutsedge, Yellow plant response rating: 10
nutsedge, yellow; [3]
  Plant response rating, Nutsedge, Yellow: 10
nutsedge, yellow; [4]
  Plant response rating, Nutsedge, Yellow: 20
foxtail, giant; [1]
  Plant response rating (scale of 0 to 100 where 0 is no effect and 100 is complete control), Foxtail, Giant: 5
foxtail, giant; [2]
  Foxtail, Giant plant response rating: 10
foxtail, giant; [3]
  Plant response rating, Foxtail, Giant: 55
foxtail, giant; [4]
  Plant response rating, Foxtail, Giant: 35
oat, wild; [1]
  Plant response rating (scale of 0 to 100 where 0 is no effect and 100 is complete control), Oat, Wild: 10
oat, wild; [2]
  Oat, Wild plant response rating: 10
oat, wild; [3]
  Plant response rating, Oat, Wild: 25
oat, wild; [4]
  Plant response rating, Oat, Wild: 10
waterhemp; [1]
  Plant response rating (scale of 0 to 100 where 0 is no effect and 100 is complete control), Waterhemp: 35
waterhemp; [2]
  Waterhemp plant response rating: 55
waterhemp; [3]
  Plant response rating, Waterhemp: 80
waterhemp; [4]
  Plant response rating, Waterhemp: 65
crabgrass, large; [1]
  Plant response rating (scale of 0 to 100 where 0 is no effect and 100 is complete control), Crabgrass, Large: 5
crabgrass, large; [2]
  Crabgrass, Large plant response rating: 5
crabgrass, large; [3]
  Plant response rating, Crabgrass, Large: 55
crabgrass, large; [4]
  Plant response rating, Crabgrass, Large: 75
galium; [1]
  Plant response rating (scale of 0 to 100 where 0 is no effect and 100 is complete control), Galium: 55
galium; [2]
  Galium plant response rating: 60
galium; [3]
  Plant response rating, Galium: 75
galium; [4]
  Plant response rating, Galium: 60
kochia; [1]
  Plant response rating (scale of 0 to 100 where 0 is no effect and 100 is complete control), Kochia: 70
kochia; [2]
  Kochia plant response rating: 80
kochia; [3]
  Plant response rating, Kochia: 90
kochia; [4]
  Plant response rating, Kochia: 80
velvetleaf; [1]
  Plant response rating (scale of 0 to 100 where 0 is no effect and 100 is complete control), Velvetleaf: 5
velvetleaf; [2]
  Velvetleaf plant response rating: 15
velvetleaf; [3]
  Plant response rating, Velvetleaf: 50
velvetleaf; [4]
  Plant response rating, Velvetleaf: 35
corn; [1]
  Plant response rating (scale of 0 to 100 where 0 is no effect and 100 is complete control), Corn: 5
corn; [2]
  Corn plant response rating: 5
corn; [3]
  Plant response rating, Corn: 20
corn; [4]
  Plant response rating, Corn: 75
soybean; [1]
  Plant response rating (scale of 0 to 100 where 0 is no effect and 100 is complete control), Soybean: 65
soybean; [2]
  Soybean plant response rating: 45
soybean; [3]
  Plant response rating, Soybean: 98
soybean; [4]
  Plant response rating, Soybean: 95
blackgrass; [1]
  Plant response rating (scale of 0 to 100 where 0 is no effect and 100 is complete control), Blackgrass: 5
blackgrass; [2]
  Blackgrass plant response rating: 5
blackgrass; [3]
  Plant response rating, Blackgrass: 25
blackgrass; [4]
  Plant response rating, Blackgrass: 10
chickweed; [1]
  Plant response rating (scale of 0 to 100 where 0 is no effect and 100 is complete control), Chickweed: 75
chickweed; [2]
  Chickweed plant response rating: 70
chickweed; [3]
  Plant response rating, Chickweed: 85
chickweed; [4]
  Plant response rating, Chickweed: 75
ragweed; [1]
  Plant response rating (scale of 0 to 100 where 0 is no effect and 100 is complete control), Ragweed: 10
ragweed; [2]
  Ragweed plant response rating: 10
ragweed; [3]
  Plant response rating, Ragweed: 90
ragweed; [4]
  Plant response rating, Ragweed: 55
